Measurements: patent publication US20140243292A1, “SUBSITUTED 2-(CHROMAN-6-YLOXYL)-THIAZOLES AND THEIR USE AS PHARMACEUTICALS” (Sanofi, priority 2011, published 2014)

System: Sprague-Dawley rats
Assay: In vivo method for determining the effect on heart contractility (left ventricular dp/dtmax)
Details: Rattus norvegicus, iv, anesthetized rats, vs solvent control, read-out: Contractility increase (%); for change in vivo at 0.1 mg/kg: i.v. bolus injection 0.1 mg/kg; for change in vivo at 0.3 mg/kg: i.v. bolus injection 0.3 mg/kg; for change in vivo at 1 mg/kg: i.v. bolus injection 1.0 mg/kg
Protocol: Adult male Sprague-Dawley rats (Harlan Winkelmann, Borchen, Germany) weighing 340 to 370 g were anesthetized with pentobarbital (100 mg/kg i.p.) and ventilated with a mixture of oxygen (40%) and room air (60%) at a tidal volume of 1 ml/100 g at 60 breaths/min. Body temperature was maintained at 36.5±0.3° C. with a heating lamp and was monitored with a rectal thermo sensor. Systemic blood pressure was measured in the left carotid artery using a pressure transducer (Combitrans; B. Braun Melsungen AG, Melsungen, Germany) connected to a DC-bridge-amplifier (PLUGSYS/ADC Type 663; Harvard Apparatus GmbH, March-Hugstetten, Germany). The electrocardiogram was measured as lead II via subcutaneously placed electrodes connected to a Heart-Rate-Module ([…] Type 669; Harvard Apparatus GmbH, March-Hugstetten, Germany). A micro-tip catheter (2 French, SPR-320; Millar Instruments, Houston, Tex., USA) was placed via the right carotid artery into the left ventricle, and the left ventricular pressure (LVP) and the enddiastolic pressure (EDP) were continuously measured. Registration of the hemodynamic data was performed via an analog digital converter by a personal computer using Notocord software (HEM version 3.5). Left ventricular contractility (dp/dtmax) and relaxation (dp/dtmin) were calculated from the LVP signal. For intravenous administration of the test compounds, the left jugular vein was prepared and a PP-50 catheter was inserted. Test compounds were administered either by intravenous bolus injection or by intravenous infusion by means of an infusion pump (Unita; B. Braun Melsungen AG, Melsungen, Germany). […] In a typical experiment, several dosages of the test compound were administered subsequently at increasing doses. Statistical significance of the data obtained with drug vs. control experiments, in which solvent was administered, was evaluated with the 2-sided ANOVA test (program Everstat). Increases in left ventricular contractility (percent increase) by example compounds are given in Table 3 in comparison to control experiments in which solvent was administered.

SMILES	change in vivo at 0.1 mg/kg [%]	change in vivo at 0.3 mg/kg [%]	change in vivo at 1 mg/kg [%]
Cc1ccccc1C1CCc2cc(Oc3ncc(C(=O)NCCO)s3)ccc2O1 (stereo not drawn) [Example 299, 2-(2-o-Tolyl-chroman-6-yloxy)-thiazole-5-carboxylic acid (2-hydroxy-ethyl)-amide]	36	62	95
Cc1ccccc1C1CCc2cc(Oc3ncc(CNC(=O)c4ccno4)s3)ccc2O1 (stereo not drawn) [Example 329, Isoxazole-5-carboxylic acid [2-(2-o-tolyl-chroman-6-yloxy)-thiazol-5-ylmethyl]-amide]	24	53	101
